For one series, the system named is primate. The following applies: Subchronic oral toxicity in nonrodent, Gavage/Intubation, dose end: 91 day, group: systemic, systemic / in life observation / clinical signs / ataxia + systemic / in life observation / clinical signs / convulsions + systemic / in ….
The test system of the next series is dog. To be noted: Sub-acute repeat dose toxicity, beagle, Oral, Gavage/Intubation, dose end: 17 day, group: systemic.
Series [1] deals with mouse. The following applies: Carcinogenicity, cd1, Oral, Water, dose end: 24 month, group: systemic.
In series [2] the test system is rat. To be noted: Combined chronic toxicity/carcinogenicity, sprague dawley, Oral, Water, dose end: 24 month, group: systemic.
For series [3], the system named is rabbit. The following applies: Prenatal developmental toxicity study, new zealand white, Oral, Gavage/Intubation, dose end: 19 GD.
For series [4], the system named is rat. The following applies: Subchronic dermal toxicity, sprague dawley, Topical, dose end: 13 week, group: systemic, systemic / in life observation / clinical signs / desquamation + systemic / in life observation / clinical signs / erythema + systemic / in ….
The test system of series [5] is rat. The following applies: Sub-acute repeat dose toxicity; sprague dawley; Oral; Gavage/Intubation; dose end: 4 week; group: systemic; systemic / clinical chemistry / alanine aminotransferase (alt/sgpt) / alanine aminotransferase (alt/sgpt) + systemic / clinical chemistry / ….
Series [6] deals with rat. To be noted: Prenatal developmental toxicity study, sprague dawley, Oral, Gavage/Intubation, dose end: 17 GD, group: maternal.
The subject of series [7] is mouse. The following applies: Carcinogenicity; b6c3f1; Oral; Feed; dose end: 78 week; group: systemic; systemic / in life observation / body weight / body weight.
Series [8] has as its system rat. The following applies: Prenatal developmental toxicity study, sprague dawley, Oral, Gavage/Intubation, dose end: 17 GD.
Series [9] deals with rat. To be noted: Carcinogenicity; fischer; Oral; Feed; dose end: 78 week; group: systemic; systemic / in life observation / body weight / body weight + systemic / pathology microscopic / bone marrow / atrophy.
Series [10] has as its system rat. To be noted: Subchronic oral toxicity in rodents, sprague dawley, Water, dose end: 13 week, group: systemic.
The test system of series [11] is rabbit. To be noted: Prenatal developmental toxicity study, dutch, Oral, Gavage/Intubation, dose end: 18 GD.
Series [12] concerns mouse. To be noted: Subchronic oral toxicity in rodents, b6c3f1, Water, dose end: 13 week, group: systemic.
Series [13] deals with rat. The following applies: Combined chronic toxicity/carcinogenicity; sprague dawley; Oral; Water; dose end: 24 month; group: systemic; systemic / in life observation / mortality / mortality + systemic / pathology gross / kidney / calculus + systemic / pathology gross / ….
Series [14] concerns mouse. The following applies: Carcinogenicity, b6c3f1, Oral, Water, dose end: 104 week, group: systemic.
For series [15], the system named is rat. The following applies: Subchronic oral toxicity in rodents, other, Water, dose end: 90 day, group: systemic.
Series [16] deals with rat. The following applies: Prenatal developmental toxicity study, sprague dawley, Oral, Gavage/Intubation, dose end: 15 GD.
Series [17] concerns rabbit. The following applies: Prenatal developmental toxicity study, chinchilla, Oral, Gavage/Intubation, dose end: 18 GD.
Where [18] appears, read: systemic / clinical chemistry / alanine aminotransferase (alt/sgpt) / alanine aminotransferase (alt/sgpt) + systemic / clinical chemistry / ….
The mark [19] stands for this setting: systemic / hematology / erythrocyte (rbc) count differential / erythrocyte (rbc) + systemic / hematology / hematocrit (hct) / hematocrit (….
Where [20] appears, read: systemic / pathology microscopic / stomach / hyperkeratosis + systemic / pathology microscopic / stomach / hyperplasia + systemic / in life ….
Setting [21] is: group: developmental, developmental / developmental malformation / general / [other].
Setting [22] is: group: maternal, systemic / in life observation / body weight / body weight + systemic / in life observation / body weight / body weight gain + systemic / in….
The mark [23] stands for this setting: reproductive / reproductive performance / postimplantation loss / postimplantation loss + reproductive / reproductive performance / ….
Setting [24] is: group: developmental, developmental / developmental malformation / bone / fused + developmental / developmental malformation / brain / dilated cerebral ventricle.
Setting [25] is: group: developmental, developmental / developmental malformation / bone / fused + developmental / developmental malformation / brain / dilated cerebral ventricle….
[26] abbreviates: group: maternal, reproductive / reproductive performance / resorptions / resorptions + reproductive / offspring survival early / dead fetuses / dead fetuses….
Setting [27] is: systemic / clinical chemistry / protein / protein.
Where [28] appears, read: systemic / pathology gross / urinary bladder / calculus + systemic / pathology microscopic / urinary bladder / hyperplasia.
[29] abbreviates: group: developmental, developmental / developmental malformation / general / crown-rump length + systemic / in life observation / body weight / fetal weight.
Where [30] appears, read: group: maternal, systemic / in life observation / body weight / body weight.
Setting [31] is: systemic / pathology gross / urinary bladder / calculus.
Where [32] appears, read: systemic / pathology gross / urinary bladder / calculus + systemic / pathology microscopic / urinary bladder / congestion.
Where [33] appears, read: systemic / in life observation / clinical signs / distended abdomens + systemic / urinalysis / sodium / sodium.
Where [34] appears, read: systemic / in life observation / body weight / body weight + systemic / in life observation / clinical signs / fur (altered appearance) + ….
Where [35] appears, read: group: developmental, developmental / developmental malformation / bone / incomplete ossification.
[36] abbreviates: group: developmental, developmental / developmental malformation / bone / unossified + systemic / in life observation / body weight / fetal weight.
[37] abbreviates: group: maternal, systemic / in life observation / body weight / body weight gain + systemic / in life observation / food consumption / food consumption.
Where [38] appears, read: group: maternal, systemic / in life observation / body weight / body weight gain + systemic / in life observation / food consumption / food consumption + ….

The term LOAEL denotes the lowest tested level that showed an adverse finding. Broadly, the NOAEL is the highest tested level that showed no adverse finding. With `Cl.NCC1(Cc2noc(=O)[nH]2)CCCCC1`, in the series on primate, the LEL turned out to be 250 mg/kg/day, the LOAEL is greater than 1500 mg/kg/day, the NEL was 50 mg/kg/day and the NOAEL was no less than 1500 mg/kg/day.
Regarding `CC(C)(O)c1cnn2c(-c3ccc(F)c(-c4c(F)cccc4C#N)c3)cnc2n1`, in the series on dog (setting [18]), the LOAEL was greater than 15 mg/kg/day, the NEL stood at 0.5 mg/kg/day and the NOAEL is no less than 15 mg/kg/day. The same compound displayed an LEL in the series on dog (systemic / clinical chemistry / albumin / albumin) of 2.5 mg/kg/day.
Regarding `CN(C)N` [1,1-Dimethylhydrazine], in the series with mouse [1] (setting [19]), the LEL came out at 1.41 mg/kg/day and the NEL is 0.269 mg/kg/day. In the series on mouse [1] (systemic / pathology microscopic / liver / hyperplasia + systemic / pathology microscopic / liver / pigmentation), the LOAEL came to 1.91 mg/kg/day. For the same compound, the NOAEL in the series on mouse [1] (systemic / pathology microscopic / liver / hyperplasia + systemic / pathology microscopic / liver / pigmentation + systemic / in life …) turned out to be 0.97 mg/kg/day.
Consider `Cn1sc(Cl)cc1=O` [5-Chloro-2-methyl-3(2H)-isothiazolone], for which the LOAEL amounted to 6.6 mg/kg/day with rat [2] (systemic / pathology microscopic / stomach / hyperkeratosis + systemic / pathology microscopic / stomach / hyperplasia), 8 mg/kg/day with rabbit [3] (setting [21]), 8 mg/kg/day in the series with rabbit [3] (setting [22]) and 0.75 mg/kg/day in the series with rat [4]. Also, the NEL with rat [2] (setting [20]) was 2 mg/kg/day; in the series on rabbit [3] (setting [21]) it was 2 mg/kg/day; with rabbit [3] (setting [22]), 2 mg/kg/day; with rat [4] it was less than 0.75 mg/kg/day. The NOAEL with rat [2] (setting [20]) is 2 mg/kg/day; in the series with rabbit [3] (setting [21]), 2 mg/kg/day; in the series on rabbit [3] (setting [22]), 2 mg/kg/day; with rat [4] it was less than 0.75 mg/kg/day. For the same compound, the LEL in the series with rat [2] (systemic / pathology microscopic / stomach / hyperkeratosis + systemic / pathology microscopic / stomach / hyperplasia + systemic / …) came out at 6.6 mg/kg/day; with rabbit [3] (setting [21]) it was 8 mg/kg/day; in the series on rabbit [3] (setting [22]), 8 mg/kg/day; in the series with rat [4], 0.75 mg/kg/day.
For `O=C(O)c1ccccc1-n1cc(C(=O)O)c(=O)c2cc(Nc3c(F)cc(F)cc3Cl)c(Cl)cc21` [AVE9423], in the series on rat [5], the LEL was 200 mg/kg/day, the LOAEL is 200 mg/kg/day, the NEL is 20 mg/kg/day and the NOAEL was 20 mg/kg/day. For the same compound, in the series on rat [6] (setting [23]), the LOAEL is greater than 1000 mg/kg/day, the NEL came out at 40 mg/kg/day and the NOAEL was no less than 1000 mg/kg/day. Also, in the series on rat [6] (reproductive / reproductive performance / postimplantation loss / postimplantation loss + systemic / in life observation / body weight / …), the LEL was 200 mg/kg/day.
For `CCc1nc(N)nc(N)c1-c1ccc(Cl)cc1` [Pyrimethamine], the LEL in the series on mouse [7] stood at 75 mg/kg/day; in the series on rat [8] (setting [24]) it was 1.2 mg/kg/day; in the series on rat [8] (setting [26]) it was 2.7 mg/kg/day; in the series with rat [9], 10 mg/kg/day. The LOAEL with mouse [7] was greater than 150 mg/kg/day; in the series with rat [8] (setting [25]), greater than 2.7 mg/kg/day; in the series with rat [8] (setting [26]), greater than 2.7 mg/kg/day; with rat [9] it was greater than 20 mg/kg/day. Also, the NEL was less than 75 mg/kg/day in the series with mouse [7]; less than 1.2 mg/kg/day in the series on rat [8] (setting [24]); 1.2 mg/kg/day with rat [8] (group: maternal, reproductive / reproductive performance / resorptions / resorptions); less than 10 mg/kg/day in the series on rat [9]. Also, the NOAEL with mouse [7] was no less than 150 mg/kg/day; in the series with rat [8] (setting [25]), no less than 2.7 mg/kg/day; with rat [8] (setting [26]), no less than 2.7 mg/kg/day; with rat [9], no less than 20 mg/kg/day.
Turning to `O=c1[n-]c(=O)[nH]c(=O)[nH]1.[Na+]` [Sodium cyanurate], the LEL in the series with rat [10] (setting [27]) is 132 mg/kg/day; in the series with rabbit [11] (setting [29]) it was 500 mg/kg/day; with rabbit [11] (setting [30]), 200 mg/kg/day; in the series with mouse [12] (setting [31]), 252 mg/kg/day; with rat [13], 371 mg/kg/day; in the series on mouse [14] (systemic / in life observation / body weight / body weight gain) it was 100 mg/kg/day. Also, the NEL in the series on rat [10] (setting [27]) is less than 132 mg/kg/day; with rabbit [11] (setting [29]) it was 200 mg/kg/day; in the series on rabbit [11] (setting [30]) it was 50 mg/kg/day; with mouse [12] (setting [31]), less than 252 mg/kg/day; with rat [13], 154 mg/kg/day; in the series on mouse [14] (systemic / in life observation / body weight / body weight gain + systemic / in life observation / clinical signs / distended abdomens + …), 25.9 mg/kg/day. In addition, the LOAEL in the series with rat [10] (setting [28]) was greater than 672 mg/kg/day; in the series with rabbit [11] (setting [29]), 500 mg/kg/day; in the series with rabbit [11] (setting [30]) it was 200 mg/kg/day; in the series with mouse [12] (setting [32]), 1990 mg/kg/day; in the series with rat [13], 371 mg/kg/day; in the series with mouse [14] (setting [33]), greater than 1520 mg/kg/day. For the same compound, the NOAEL was no less than 672 mg/kg/day in the series with rat [10] (setting [28]); 200 mg/kg/day with rabbit [11] (setting [29]); 50 mg/kg/day in the series on rabbit [11] (setting [30]); 522 mg/kg/day in the series with mouse [12] (setting [32]); 154 mg/kg/day with rat [13]; no less than 1520 mg/kg/day with mouse [14] (setting [33]).
For the compound `CCCCCCCCCCCCCC[P+](CCCC)(CCCC)CCCC.[Cl-]` [Tributyltetradecylphosphonium chloride], the LOAEL in the series on rat [15] (setting [34]) stood at 27.2 mg/kg/day; in the series on rat [16] (setting [35]), 30 mg/kg/day; in the series on rat [16] (setting [22]), 120 mg/kg/day; with rabbit [17] (setting [36]) it was 11.2 mg/kg/day; in the series with rabbit [17] (setting [37]) it was 11.2 mg/kg/day. Moreover, the NEL with rat [15] (setting [34]) was 2.56 mg/kg/day; with rat [16] (setting [35]), 10 mg/kg/day; in the series with rat [16] (setting [22]) it was 20 mg/kg/day; in the series with rabbit [17] (setting [36]), 3.75 mg/kg/day; in the series with rabbit [17] (setting [38]), 3.75 mg/kg/day. The NOAEL with rat [15] (setting [34]) was determined as 8.66 mg/kg/day; with rat [16] (setting [35]), 10 mg/kg/day; in the series on rat [16] (setting [22]) it was 60 mg/kg/day; with rabbit [17] (setting [36]) it was 3.75 mg/kg/day; in the series on rabbit [17] (setting [38]) it was 3.75 mg/kg/day. In addition, the LEL was determined as 8.66 mg/kg/day in the series on rat [15] (systemic / organ weight / kidney / relative to body weight); 30 mg/kg/day with rat [16] (setting [35]); 60 mg/kg/day in the series on rat [16] (group: maternal, systemic / in life observation / food consumption / food consumption + systemic / in life observation / clinical signs / respiration (…); 11.2 mg/kg/day in the series with rabbit [17] (setting [36]); 11.2 mg/kg/day with rabbit [17] (setting [37]).
